Measurements taken from ChEMBL document CHEMBL4024742, “Pharmaceutical Approaches to Target Antibiotic Resistance Mechanisms” (J Med Chem, 2017).
In brackets after ≈: the same amount, converted by molar mass.

Columns and labels:
Escherichia coli [1] = assay: Antibacterial activity against multi drug-resistant Escherichia coli KG4 after 24 hrs by serial dilution method; assay type: functional; settings: KG4, 24 h
Escherichia coli [2] = assay: Antibacterial activity against multi drug-resistant Escherichia coli KG1 after 24 hrs by serial dilution method; assay type: functional; settings: KG1, 24 h
Escherichia coli [3] = assay: Antibacterial activity against multi drug-resistant Escherichia coli EM5 mutant after 24 hrs by serial dilution method; assay type: functional
Escherichia coli [4] = assay: Antibacterial activity against multi drug-resistant Escherichia coli EM7 mutant after 24 hrs by serial dilution method; assay type: functional
Escherichia coli [5] = assay: Antibacterial activity against multi drug-sensitive Escherichia coli MTCC 739 after 24 hrs by serial dilution method; assay type: functional; settings: MTCC 739, 24 h
[6] = tested on: Staphylococcus epidermidis; assay: Antibacterial activity against planktonic Staphylococcus epidermidis RP62A after 24 hrs by broth microdilution method; assay type: functional
Staphylococcus aureus [7] = assay: Antibacterial activity against planktonic Staphylococcus aureus ATCC 29213 after 24 hrs by broth microdilution method; assay type: functional; settings: ATCC 29213, 24 h
Staphylococcus aureus [8] = assay: Antibacterial activity against planktonic Staphylococcus aureus ATCC 43866 after 24 hrs by broth microdilution method; assay type: functional; settings: ATCC 43866, 24 h
Staphylococcus aureus [9] = assay: Antibacterial activity against Staphylococcus aureus ATCC 25923 after 24 hrs by broth microdilution method; assay type: functional; settings: ATCC 25923, 24 h
Staphylococcus aureus [10] = assay: Antibacterial activity against Staphylococcus aureus 1199B after 24 hrs by broth microdilution method; assay type: functional
[11] = biological target: T1, Quinolone resistance protein NorA (Staphylococcus aureus) (UniProt P0A0J7); assay: Inhibition of Staphylococcus aureus 1199B NorA assessed as potentiation of ciprofloxacin-induced antibacterial activity at 0.5 ug/ml after 24 hrs
T1 sequence (whole entry): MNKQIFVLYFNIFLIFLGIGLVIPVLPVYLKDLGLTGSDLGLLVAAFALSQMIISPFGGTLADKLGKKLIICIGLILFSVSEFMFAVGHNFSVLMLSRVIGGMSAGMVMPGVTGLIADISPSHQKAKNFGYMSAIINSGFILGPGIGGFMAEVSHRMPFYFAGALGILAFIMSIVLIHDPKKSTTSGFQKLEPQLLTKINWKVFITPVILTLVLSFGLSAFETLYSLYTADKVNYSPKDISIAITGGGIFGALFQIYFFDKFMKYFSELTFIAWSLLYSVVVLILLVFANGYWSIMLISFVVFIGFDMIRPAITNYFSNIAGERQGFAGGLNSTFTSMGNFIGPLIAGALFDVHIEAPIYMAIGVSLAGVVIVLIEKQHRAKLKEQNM

[12] = biological target: T1, Quinolone resistance protein NorA (Staphylococcus aureus); assay: Inhibition of Staphylococcus aureus 1199B NorA assessed as potentiation of ciprofloxacin-induced antibacterial activity at 2 ug/ml after 24 hrs
Staphylococcus aureus [13] = assay: Antibiofilm activity against methicillin-resistant Staphylococcus aureus BAA-44 at 100 uM after 24 hrs by crystal violet staining based assay; assay type: functional; settings: BAA-44, 24 h
Staphylococcus aureus [14] = assay: Antibiofilm activity against methicillin-resistant Staphylococcus aureus BAA-44 after 24 hrs by crystal violet staining based assay; assay type: functional; settings: BAA-44, 24 h
Staphylococcus aureus [15] = assay: Inhibition of biofilm formation in Staphylococcus aureus ATCC 43866 at 25 ug/ml after 24 hrs by MTT assay; assay type: functional; settings: ATCC 43866, 24 h
Staphylococcus aureus [16] = assay: Inhibition of biofilm formation in Staphylococcus aureus ATCC 29213 at 1.5 ug/ml after 24 hrs by MTT assay; assay type: functional; settings: ATCC 29213, 24 h
Staphylococcus aureus [17] = assay: Inhibition of biofilm formation in Staphylococcus aureus ATCC 25923 at 1.5 ug/ml after 24 hrs by MTT assay; assay type: functional; settings: ATCC 25923, 24 h
Staphylococcus aureus [18] = assay: Inhibition of biofilm formation in Staphylococcus aureus ATCC 657 at 1.5 ug/ml after 24 hrs by MTT assay; assay type: functional; settings: ATCC 657, 24 h
Staphylococcus aureus [19] = assay: Inhibition of biofilm formation in Staphylococcus aureus ATCC 702 at 1.5 ug/ml after 24 hrs by MTT assay; assay type: functional; settings: ATCC 702, 24 h
[20] = tested on: Staphylococcus epidermidis; assay: Inhibition of biofilm formation in Staphylococcus epidermidis DSM 3269 at 1.5 ug/ml after 24 hrs by MTT assay; assay type: functional; settings: DSM 3269, 24 h
[21] = tested on: Staphylococcus epidermidis; assay: Inhibition of biofilm formation in Staphylococcus epidermidis RP62A at 1.5 ug/ml after 24 hrs by MTT assay; assay type: functional
Pseudomonas aeruginosa = assay: Antimicrobial activity against Pseudomonas aeruginosa; assay type: functional
Escherichia coli [22] = assay: Antimicrobial activity against Escherichia coli; assay type: functional
Enterobacter [23] = assay: Antimicrobial activity against Enterobacter; assay type: functional
[24] = Inhibition of Escherichia coli PBP2
[25] = Inhibition of bacterial AmpC; parameters: species or system Bacteria
Escherichia coli [26] = assay: Potentiation of cefotaxime induced-antimicrobial activity against Escherichia coli (reference value: 8 to 128 ug/ml); assay type: functional
[27] = Inhibition of Klebsiella pneumoniae NP6 KPC-2 expressed in Escherichia coli DH5alpha
Enterobacter [28] = assay: Antibacterial activity against ESBL/KPC-producing Enterobacter assessed as potentiation of aztreonam induced-antimicrobial activity by measuring aztreonam MIC (Rvb > 16 ug/ml); assay type: functional
[29] = Inhibition of bacterial IMP-1 using nitrocefin as substrate; parameters: species or system Bacteria
[30] = Inhibition of bacterial AmpC using nitrocefin as substrate incubated for 5 mins followed by substrate addition by UV-vis spectrophotometer; parameters: species or system Bacteria

O=C(/C=C/c1ccccc1)O[C@H]1CCC(=O)c2ccccc21
MIC (Escherichia coli [1]): 250 to 1000 µg/mL (≈ 855 to 3420 µM)
MIC (Escherichia coli [2]): 250 to 1000 µg/mL (≈ 855 to 3420 µM)
MIC (Escherichia coli [3]): 250 to 1000 µg/mL (≈ 855 to 3420 µM)
MIC (Escherichia coli [4]): 250 to 1000 µg/mL (≈ 855 to 3420 µM)
MIC (Escherichia coli [5]): 250 to 1000 µg/mL (≈ 855 to 3420 µM)

Cc1nn(C)c([N-]C(=O)c2ccc(Cl)cc2Cl)c1[N+]#N
MIC [6]: 1.5 to 12.5 µg/mL (≈ 4.84 to 40.3 µM)
MIC (Staphylococcus aureus [7]): 1.5 to 12.5 µg/mL (≈ 4.84 to 40.3 µM)
MIC (Staphylococcus aureus [8]): 1.5 to 12.5 µg/mL (≈ 4.84 to 40.3 µM)

CC(C)(C)OC(=O)NCC(NC(=O)C(=O)c1c[nH]c2ccccc12)c1c[nH]c2ccccc12 (stereo not drawn)
MIC (Staphylococcus aureus [9]): > 32 µg/mL
MIC (Staphylococcus aureus [10]): > 32 µg/mL
MIC [11]: 4 µg/mL
MIC [12]: 2 µg/mL

CCCCOc1cc(Br)cc(/C=C(\C)Cn2cc(CCCCCc3c[nH]c(N)n3)nn2)c1F
inhibition at 100 µM (Staphylococcus aureus [13]): > 94%
IC50 (Staphylococcus aureus [14]): 4.5 µM

Cc1nn(C)c([N-]C(=O)c2ccc(Cl)cc2)c1[N+]#N
MIC [6]: 1.5 to 12.5 µg/mL (≈ 5.44 to 45.3 µM)
MIC (Staphylococcus aureus [7]): 1.5 to 12.5 µg/mL (≈ 5.44 to 45.3 µM)
MIC (Staphylococcus aureus [8]): 1.5 to 12.5 µg/mL (≈ 5.44 to 45.3 µM)
inhibition at 25 µg/mL (Staphylococcus aureus [15]): 69 to 96%

O=C(c1cc(Br)ccc1O)c1[nH]c(Br)c(Br)c1Br
inhibition at 1.5 µg/mL (Staphylococcus aureus [16]): > 60%
inhibition at 1.5 µg/mL (Staphylococcus aureus [17]): > 60%
inhibition at 1.5 µg/mL (Staphylococcus aureus [18]): > 60%
inhibition at 1.5 µg/mL (Staphylococcus aureus [19]): > 60%
inhibition at 1.5 µg/mL [20]: > 60%
inhibition at 1.5 µg/mL [21]: > 60%

O=C(NOC1CCNC1)[C@@H]1CC[C@@H]2CN1C(=O)N2OS(=O)(=O)[O-].[Na+] (stereo partly drawn)
MIC (Pseudomonas aeruginosa): ≤ 2 µg/mL
MIC (Escherichia coli [22]): ≤ 2 µg/mL
MIC (Enterobacter [23]): ≤ 2 µg/mL
IC50 [24]: 16 µM

O=S(=O)(NCB(O)O)c1ccc(-c2nnn[nH]2)nc1
Ki [25]: 0.0008 µM
MIC (Escherichia coli [26]): 0.5 to 1 µg/mL

O=C(c1cc(Cl)cc(Cl)c1O)c1[nH]c(Br)c(Br)c1Br
inhibition at 1.5 µg/mL (Staphylococcus aureus [16]): 67.9 to 86.7%
inhibition at 1.5 µg/mL (Staphylococcus aureus [17]): 67.9 to 86.7%
inhibition at 1.5 µg/mL (Staphylococcus aureus [18]): 67.9 to 86.7%
inhibition at 1.5 µg/mL (Staphylococcus aureus [19]): 67.9 to 86.7%
inhibition at 1.5 µg/mL [20]: 67.9 to 86.7%
inhibition at 1.5 µg/mL [21]: 67.9 to 86.7%

C[C@]1(Cn2ccnn2)[C@H](C(=O)O)N2C(=O)C[C@H]2S1(=O)=O [TAZOBACTAM]
IC50 [27]: 99 µM

CCCCc1ccc(/C=C(\C)Cn2cc(CCCCCc3c[nH]c(N)n3)nn2)cc1
inhibition at 100 µM (Staphylococcus aureus [13]): > 94%

NC(=O)[C@@H]1CC[C@@H]2CN1C(=O)N2OS(=O)(=O)[O-].[Na+] [AVIBACTAM SODIUM]
IC50 [24]: 63 µM
MIC (Enterobacter [28]): < 4 µg/mL

O=C(O[C@H]1CCC(=O)c2ccccc21)c1ccccc1 [4-O-BENZOYL-ALPHA-TETRALONE]
MIC (Escherichia coli [1]): 250 to 1000 µg/mL (≈ 939 to 3760 µM)
MIC (Escherichia coli [2]): 250 to 1000 µg/mL (≈ 939 to 3760 µM)
MIC (Escherichia coli [3]): 250 to 1000 µg/mL (≈ 939 to 3760 µM)
MIC (Escherichia coli [4]): 250 to 1000 µg/mL (≈ 939 to 3760 µM)
MIC (Escherichia coli [5]): 250 to 1000 µg/mL (≈ 939 to 3760 µM)

O=C(O)[C@H](Cc1ccc2c(c1)OCO2)[C@@H](Cc1ccc2c(c1)OCO2)C(=O)O
IC50 [29]: 0.21 µM

O=C(c1cc(Br)ccc1O)c1[nH]c(Cl)c(Br)c1Br
inhibition at 1.5 µg/mL (Staphylococcus aureus [16]): > 60%
inhibition at 1.5 µg/mL (Staphylococcus aureus [17]): > 60%
inhibition at 1.5 µg/mL (Staphylococcus aureus [18]): > 60%
inhibition at 1.5 µg/mL (Staphylococcus aureus [19]): > 60%
inhibition at 1.5 µg/mL [20]: > 60%
inhibition at 1.5 µg/mL [21]: > 60%

O=C(NNC(=O)[C@@H]1CC[C@@H]2CN1C(=O)N2OS(=O)(=O)[O-])C1CNC1.[Na+]
MIC (Pseudomonas aeruginosa): ≤ 2 µg/mL
MIC (Escherichia coli [22]): ≤ 2 µg/mL
MIC (Enterobacter [23]): ≤ 2 µg/mL
IC50 [24]: 3.6 µM

O=C(O)[C@@H](Cc1ccc2c(c1)OCO2)[C@H](Cc1ccc2c(c1)OCO2)C(=O)O
IC50 [29]: 0.0027 to 0.009 µM

CCCCCCCCCCCCCCCC(=O)O[C@H]1CCC(=O)c2ccccc21 [4-O-PALMITOYL-ALPHATETRALONE]
MIC (Escherichia coli [1]): 250 to 1000 µg/mL (≈ 624 to 2500 µM)
MIC (Escherichia coli [2]): 250 to 1000 µg/mL (≈ 624 to 2500 µM)
MIC (Escherichia coli [3]): 250 to 1000 µg/mL (≈ 624 to 2500 µM)
MIC (Escherichia coli [4]): 250 to 1000 µg/mL (≈ 624 to 2500 µM)
MIC (Escherichia coli [5]): 250 to 1000 µg/mL (≈ 624 to 2500 µM)

O=C(Cc1cccs1)N[C@H](B(O)O)c1cccc(C(=O)O)c1
Ki [30]: 0.001 µM
